In patent US8703705B2, “Modified factor VIII peptides” (Apitope International NV, priority 2009, dated 2014):
No end group written: not given here.

How the values were obtained:
LNC from FVIII-DR2+ mice = assay: Recall responses of lymph node cells from FVIII-DR2+ mice primed with rhFVIII/CFA; assay type: cell-based, mouse; conditions: FVIII-DR2+ animals immunised with factor VIII in adjuvant; FIG. 3
Source text: HLA-DR2 transgenic mice were crossed with factor VIII deficient mice to create a model of haemophilia expressing the human HLA class II MHC molecule.
These FVIII-DR2+ animals were immunised with factor VIII in adjuvant. Draining lymph nodes were isolated and tested for their response to the peptide panel.
The same method was followed as for (i), except the mice were FVIII-deficient, HLA-DR2+ and murine MHC class II null.

Solubility of peptide = assay type: physicochemical
[1] = test system: FVIII+DR2+ T cell hybridoma clones; assay: FVIII peptide specificity of T cell hybridomas generated from DR2+ mice (IL-2 ELISA); assay type: cell-based, mouse; conditions: for number of hybridomas responding to peptide: of the 27 hybridomas screened, 20 μg/ml peptide, IL-2
Source text: HLA-DR2 mice were first immunised with factor VIII in adjuvant. Spleen cells from immune mice were restimulated in vitro with factor VIII and the resulting lymphoblasts were fused with the BW5147 thymoma using polyethylene glycol.
T-cell hybridomas were selected in HAT medium and the hybridomas cloned and tested for their response to factor VIII. The hybridomas were then screened for their response to the 12 predicted peptides.
HLA-DR2+ murine MHC class II null mice were immunised as above. On day 10 draining lymph nodes were removed and lymphocytes cultured at 2.5×10^6 cells/ml, 1 ml/well in 24 well plates in the presence of 20 μg/ml rhFVIII for 3 days. Following this stimulation, lymphocytes were recovered, washed and fused with TCRα^−β^− BW fusion partner cells at a ratio of 4 BW cells to 1 lymphocyte, using polyethylene glycol as described by Nelson et al (1980) PNAS 77(5):2866. Fused cells were carefully washed and then plated out in flat bottomed 96 well plates for 2 days before the addition of HAT medium to select for T cell hybridomas. Cells were monitored for growth and approximately 10 days after fusions were performed, individual clones were selected and transferred to 24 well plates in HAT medium. Clones were maintained in HAT medium for at least 2 weeks before being weaned into HT medium and then complete medium. Clones were tested for antigenic specificity by culturing 100 μl of hybridoma cells with 5×10^4 Mgar cells in the presence and absence of 20 μg/ml rhFVIII overnight. Supernatants were then collected and assessed for IL-2 production by ELISA, with clones producing IL-2 in response to rhFVIII being considered positive for FVIII-specificity. To investigate the repertoire of predicted FVIII peptides FVIII-specific clones were again tested for IL-2 production, following overnight incubation with 20 μg/ml of each of the 12 peptides.

[2] = test system: FVIII-DR2+ T cell hybridoma clones; assay: FVIII peptide specificity of T cell hybridomas generated from FVIII-/- HLA-DR2+ mice (IL-2 ELISA); assay type: cell-based, mouse; conditions: of 19 hybridomas specific for factor VIII; factor VIII deficient HLA-DR2 mice
Source text: Factor VIII deficient mice expressing HLA-DR2 were immunised with factor VIII in adjuvant. Spleen cells from the immunised mice were restimulated in vitro with factor VIII and the resulting lymphoblasts were fused with BW5147, as described above. T-cell hybridomas were screened for their response to the 12 predicted peptides. Yet again, the majority of hybridomas responded to peptides DNIMV (SEQ ID NO: 11) and PRCLT (SEQ ID NO: 9). Of 19 hybridomas specific for factor VIII, 10 responded to DNIMV (SEQ ID NO: 11), 6 to PRCLT (SEQ ID NO: 9), 1 to PPIIA (SEQ ID NO: 4), 1 to SLYIS (SEQ ID NO: 3) and 1 to DTLLI (SEQ ID NO: 8).
The same method was followed as for (ii), except the mice were FVIII-deficient and HLA-DR2+.

[3] = test system: FVIII-/- clones with fresh or fixed Mgar cells; assay: Apitope test: presentation by fresh or paraformaldehyde-fixed Mgar cells to hybridoma clones, IL-2 by ELISA; assay type: cell-based, mouse; conditions: Mgar cells fresh or fixed with 1% paraformaldehyde, 20 μg/ml, FIG. 5
Protocol: In order to be an apitope, a peptide must be capable of binding to an MHC class I or II molecule without further antigen processing (i.e. trimming) and be presented to a T cell. In the present case, the capacity of peptides to be presented by fixed APC was investigated.
Mgar cells were either fresh or fixed with 1% paraformaldehyde. Clones were tested for antigenic specificity by culturing 100 μl of hybridoma cells with 5×10^4 Mgar cells in the presence and absence of 20 μg/ml rhFVIII or peptide epitopes overnight. Supernatants were then collected and assessed for IL-2 production by ELISA.

HLA-DR2 transgenic mice = assay: Tolerisation of FVIII-specific responses in DR2+ mice by peptide pre-treatment before priming with rhFVIII/CFA; assay type: in vivo, mouse; conditions: 3 x 100 μg i.p. in PBS prior to priming with rhFVIII/CFA; FIG. 6
Protocol: HLA-DR2 transgenic mice were treated with either of the two soluble peptides, or PBS as a control, prior to immunisation with factor VIII in adjuvant. Draining lymph nodes were isolated and the cells restimulated in vitro with factor VIII protein in order to assess the immune status of the mice.
HLA-DR2+ murine MHC class II null mice were treated 3 times with 100 μg of DNIMV (SEQ ID NO: 11), PRCLT (SEQ ID NO: 9) or PPIIA (SEQ ID NO: 4) dissolved in PBS, or the equivalent volume of PBS alone. Peptides were administered intraperitoneally, with 3-4 days between each dose. Following the final administration, mice were primed with rhFVIII emulsified in complete Freunds adjuvant as for (i). 10 days later, draining lymph nodes were recovered and lymphocytes subsequently cultured in vitro with rhFVIII, or each of the tolerising peptides as well as control antigens, for 72 hours before the addition of tritiated thymidine as for (i). (vi) Tolerisation of FVIII-Specific Responses in DR2+Mice by Pre-Treatment with a Combination Immunodominant FVIII Peptides

GTLMVFFGNVDSSGI (listed as Homo sapiens) [FVIII 15mer peptide, first AA 2140]
response of draining lymph node cells to peptide (LNC from FVIII-DR2+ mice): weak response

EDNIMVTFRNQASR [EDNIMV, EDNIMVTFRNQASR]
solubility (Solubility of peptide): sufficiently soluble to allow intranasal peptide delivery
solubility relative to parent peptide (Solubility of peptide; compared with DNIMV): more soluble than DNIMV

PPIIARYIRLHPTHY (listed as Homo sapiens) [FVIII 15mer peptide, first AA 2161]
character of hybridoma response to peptide ([1]; 27 hybridomas screened): weaker and less specific
number of hybridomas responding to peptide [1]: 3
number of hybridomas responding to peptide [2]: 1

RYLRIHPQSWVHQIA (listed as Homo sapiens) [FVIII 15mer peptide, first AA 2322]
response of draining lymph node cells to peptide (LNC from FVIII-DR2+ mice): significant response

DTLLIIFKNQASRPY (listed as Homo sapiens) [FVIII 15mer peptide, first AA 478]
number of hybridomas responding to peptide [2]: 1

PRCLTRYYSSFVNME (listed as Homo sapiens) [FVIII 15mer peptide, first AA 545]
presentation by live and fixed APC (function as apitope) [3]: presented by both live and fixed mgar cells
number of hybridomas responding to peptide [1]: 3
response of draining lymph node cells to peptide (LNC from FVIII-DR2+ mice): responded well
suppression of the immune response to factor VIII (LNC recall to FVIII) (HLA-DR2 transgenic mice): substantial suppression of the immune response to factor VIII
number of hybridomas responding to peptide [2]: 6

DNIMVTFRNQASRPY [DNIMV, DNIMVTFRNQASRPY]
solubility (Solubility of peptide): partly, but not completely soluble

SLYISQFIIMYSLDG (listed as Homo sapiens) [FVIII 15mer peptide, first AA 2114]
number of hybridomas responding to peptide [2]: 1
